Patent US9512120B2, “Microbicidally active imidazopyridine derivatives” (Syngenta Participations AG, priority 2013, dated 2016)

Legend:
[1] = test system: Puccinia recondita f. sp. Tritici; experiment: Puccinia recondita f. sp. tritici / wheat / leaf disc curative (brown rust); format: in vivo; settings: foliar, wheat leaf segments cv Kanzler, applied 1 day after inoculation, assessed 6-8 days after application, read-out: control of Puccinia recondita f. sp. Tritici (percent disease control compared to untreated)
Experimental: Puccinia recondita f. Sp. Tritici/Wheat/Leaf Disc Curative (Brown Rust): Wheat leaf segments cv Kanzler were placed on agar in 24-well plates. The leaf segments were inoculated with a spore suspension of the fungus. The plates were stored in darkness at 19° C. and 75% relative humidity. The formulated test compound diluted in water was applied at an application rate of 200 ppm 1 day after inoculation. […] Tritici at 200 ppm when compared to untreated control leaf disks under the same conditions, which show extensive disease development: 2, 13, 16, 23, 30, 61, 75, 89, 103, 173, 174

Pythium ultimum = Pythium ultimum / liquid culture (seedling damping off); format: cell-based; settings: Globisporangium ultimum, potato dextrose broth, 24° C., 2-3 days after application, read-out: control of Pythium ultimum (inhibition of growth, photometric)
How it was run: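 Test compound in DMSO at 200 ppm was incubated with mycelia fragments and oospores in potato dextrose broth at 24 °C. Growth inhibition was read photometrically 2-3 days after application.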

[2] = test system: Glomerella lagenarium (Colletotrichum lagenarium); experiment: Glomerella lagenarium (Colletotrichum lagenarium) / liquid culture (anthracnose); format: cell-based; settings: Colletotrichum orbiculare, PDB, 24° C., 3-4 days after application, read-out: control of Glomerella lagenarium (inhibition of growth, photometric)
How it was run: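 Cryopreserved conidia suspended in potato dextrose broth were added to compound in DMSO applied at 200 ppm. Plates incubated at 24° C; growth inhibition read photometrically 3-4 days after application.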

[3] = test system: Thanatephorus cucumeris (Rhizoctonia solani); experiment: Thanatephorus cucumeris (Rhizoctonia solani) / liquid culture (foot rot, damping-off); format: cell-based; settings: PDB, 24° C., 3-4 days after application, read-out: control of Thanatephorus cucumeris (inhibition of growth, photometric)
How it was run: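 Mycelial fragments in potato dextrose broth exposed to test compounds at 200 ppm (from DMSO solution), incubated at 24° C. Growth inhibition read photometrically 3-4 days after application.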

[4] = test system: Fusarium graminearum, syn. Gibberella zeae; experiment: whole plant or invertebrate; format: in vivo; settings: in Triticum aestivum, 144 h, read-out: control of Gibberella zeae (preventative fungicidal activity)
[5] = test system: Mycosphaerella arachidis (Cercospora arachidicola); experiment: Mycosphaerella arachidis (Cercospora arachidicola) / liquid culture (early leaf spot); format: cell-based; settings: PDB, 24° C., 4-5 days after application, read-out: control of Mycosphaerella arachidis (inhibition of growth, photometric)
How it was run: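 Conidia suspended in potato dextrose broth and added to test compound from DMSO solution at 200 ppm. Incubated at 24 °C; growth inhibition read photometrically 4-5 days after application.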

Fusarium culmorum = experiment: microbe, parasite or virus in culture; format: cell-based; settings: read-out: control of Fusarium culmorum (inhibition of growth, photometric)
Sclerotinia sclerotiorum = Sclerotinia sclerotiorum liquid culture (cottony rot / white mold); format: cell-based; settings: PDB, 24° C., 3-4 days after application, read-out: control of Sclerotinia sclerotiorum (inhibition of growth, photometric)
How it was run: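 Mycelia fragments of Sclerotinia sclerotiorum in potato dextrose broth were added to compound in DMSO. Cultures incubated at 24° C; growth inhibition determined photometrically 3-4 days after application.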

Plasmopara viticola = Plasmopara viticola / grape / leaf disc preventative; format: in vivo; settings: foliar, grape vine leaf disks, inoculated 1 day after application, assessed 6-8 days after application, read-out: control of Plasmopara viticola (percent disease control compared to untreated)

Row | Structure (SMILES) | pest or weed control at 200 ppm [1] [%] | inhibition at 20 ppm (Pythium ultimum) [%] | inhibition at 20 ppm [2] [%] | melting point [°C] | inhibition at 20 ppm [3] [%] | pest or weed control at 20 ppm [4] [%] | inhibition at 20 ppm [5] [%] | inhibition at 20 ppm (Fusarium culmorum) [%] | inhibition at 20 ppm (Sclerotinia sclerotiorum) [%] | pest or weed control at 200 ppm (Plasmopara viticola) [%]
1 | CCCn1c(-n2ncnc2N)nc2cnccc21 [Compound 13, 2-(1-propylimidazo[4,5-c]pyridin-2-yl)-1,2,4-triazol-3-amine] | ≥ 80 | ≥ 80 | ≥ 80 | 210 to 212 | ≥ 80 | ≥ 80 | ≥ 80 | – | – | –
2 | CCc1cncc2nc(-n3ncnc3N)n(CC)c12 [Compound 23, 2-(1,7-diethylimidazo[4,5-c]pyridin-2-yl)-1,2,4-triazol-3-amine] | ≥ 80 | ≥ 80 | ≥ 80 | 176 to 179 | ≥ 80 | ≥ 80 | ≥ 80 | ≥ 80 | ≥ 80 | –
3 | CC=Cc1cncc2nc(-n3ncnc3N)n(CC)c12 [Compound 67, 2-(1-ethyl-7-prop-1-enylimidazo[4,5-c]pyridin-2-yl)-1,2,4-triazol-3-amine] | – | ≥ 80 | ≥ 80 | – | ≥ 80 | – | ≥ 80 | – | ≥ 80 | –
4 | CCn1c(-n2ncnc2N)nc2cncc(C(C)=O)c21 [Compound 75, 1-[2-(5-amino-1,2,4-triazol-1-yl)-1-ethylimidazo[4,5-c]pyridin-7-yl]ethanone] | ≥ 80 | – | – | 242 to 244 | ≥ 80 | – | ≥ 80 | – | ≥ 80 | –
5 | CCn1c(-n2ncnc2N)nc2cncc(-c3ccc(F)c(F)c3F)c21 [Compound 86, 2-[1-ethyl-7-(2,3,4-trifluorophenyl)imidazo[4,5-c]pyridin-2-yl]-1,2,4-triazol-3-amine] | – | ≥ 80 | ≥ 80 | – | ≥ 80 | – | ≥ 80 | ≥ 80 | ≥ 80 | –
6 | CCn1c(-n2ncnc2N)nc2cncc(-c3cccnc3F)c21 [Compound 89, 2-[1-ethyl-7-(2-fluoropyridin-3-yl)imidazo[4,5-c]pyridin-2-yl]-1,2,4-triazol-3-amine] | ≥ 80 | ≥ 80 | ≥ 80 | – | ≥ 80 | ≥ 80 | – | ≥ 80 | ≥ 80 | –
7 | CCn1c(-n2ncnc2N)nc2cncc(-c3cccc(Cl)c3F)c21 [Compound 90, 2-[7-(3-chloro-2-fluorophenyl)-1-ethylimidazo[4,5-c]pyridin-2-yl]-1,2,4-triazol-3-amine] | – | – | ≥ 80 | – | ≥ 80 | ≥ 80 | ≥ 80 | ≥ 80 | ≥ 80 | –
8 | CCn1c(-n2ncnc2N)nc2cncc(-c3cccc(OC)c3F)c21 [Compound 93, 2-[1-ethyl-7-(2-fluoro-3-methoxyphenyl)imidazo[4,5-c]pyridin-2-yl]-1,2,4-triazol-3-amine] | – | – | ≥ 80 | – | ≥ 80 | ≥ 80 | ≥ 80 | ≥ 80 | ≥ 80 | –
9 | CCn1c(-n2ncnc2N)nc2cncc(-c3cccc(F)c3F)c21 [Compound 102, 2-[7-(2,3-difluorophenyl)-1-ethylimidazo[4,5-c]pyridin-2-yl]-1,2,4-triazol-3-amine] | – | ≥ 80 | ≥ 80 | – | ≥ 80 | ≥ 80 | ≥ 80 | ≥ 80 | ≥ 80 | –
10 | CCn1c(-n2ncnc2N)nc2cncc(/C(C)=N\OC/C=C(\C)Cl)c21 [Compound 153, 2-[7-[(Z)-N-[(E)-3-chlorobut-2-enoxy]-C-methyl-carbonimidoyl]-1-ethyl-imidazo[4,5-c]pyridin-2-yl]-1,2,4-triazol-3-amine] | – | – | ≥ 80 | – | ≥ 80 | – | ≥ 80 | ≥ 80 | ≥ 80 | ≥ 80
11 | CCCn1c(-n2ncnc2N)nc2cncc(C)c21 [Compound 173, 2-(7-methyl-1-propyl-imidazo[4,5-c]pyridin-2-yl)-1,2,4-triazol-3-amine] | ≥ 80 | ≥ 80 | ≥ 80 | – | ≥ 80 | – | ≥ 80 | – | – | –
12 | CCCn1c(-n2ncnc2N)nc2cncc(CC)c21 [Compound 174, 2-(7-ethyl-1-propyl-imidazo[4,5-c]pyridin-2-yl)-1,2,4-triazol-3-amine] | ≥ 80 | ≥ 80 | ≥ 80 | – | ≥ 80 | – | – | – | – | ≥ 80
